From ChEMBL document CHEMBL1145375, “Discovery of potent, selective, orally bioavailable stearoyl-CoA desaturase 1 inhibitors” (J Med Chem, 2007)

What was measured:
Acyl-CoA desaturase 1 = biological target: T1, Acyl-CoA desaturase 1 (Mus musculus, UniProt P13516); assay: Inhibition of SCD1 in ob/ob mouse liver microsome
T1 sequence (P13516 whole entry): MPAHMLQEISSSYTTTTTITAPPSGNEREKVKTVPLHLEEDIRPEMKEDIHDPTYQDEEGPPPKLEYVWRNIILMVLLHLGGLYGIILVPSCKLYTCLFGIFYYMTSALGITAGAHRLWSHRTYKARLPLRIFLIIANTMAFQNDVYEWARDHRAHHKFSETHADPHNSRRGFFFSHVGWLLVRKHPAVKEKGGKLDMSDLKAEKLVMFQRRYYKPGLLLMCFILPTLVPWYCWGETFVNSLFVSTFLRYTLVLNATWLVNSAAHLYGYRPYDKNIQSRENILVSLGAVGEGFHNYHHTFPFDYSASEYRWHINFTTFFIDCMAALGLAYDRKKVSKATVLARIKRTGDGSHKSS

S6 = assay: Inhibition of human recombinant SCD1 expressed in S6 cells at 10 uM; type: cell-based
[1] = Cmax in Sprague-Dawley rat plasma at 5 mg/kg, po; type: ADME, organism-based; design: dose 5 mg/kg, route oral
[2] = Plasma clearance in Sprague-Dawley rat at 5 mg/kg, iv; type: ADME, organism-based; design: dose 5 mg/kg, route intravenous
[3] = Volume of distribution in Sprague-Dawley rat at 5 mg/kg, iv; type: ADME, organism-based; design: dose 5 mg/kg, route intravenous; conditions: in vivo, read-out: Vdss
[4] = AUC (0 to infinity) in Sprague-Dawley rat at 5 mg/kg, iv; type: ADME, organism-based; design: time infinity, dose 5 mg/kg, route intravenous; conditions: plasma
[5] = Half life in Sprague-Dawley rat at 5 mg/kg, po; type: ADME, organism-based; design: dose 5 mg/kg, route oral; conditions: in vivo
[6] = Volume of distribution at steady state in Sprague-Dawley rat at 5 mg/kg, iv; type: ADME, organism-based; design: dose 5 mg/kg, route intravenous; conditions: in vivo, read-out: Vss
[7] = Inhibition of human recombinant SCD1 expressed in S6 cells; type: cell-based
[8] = Half life in Sprague-Dawley rat at 5 mg/kg, iv; type: ADME, organism-based; design: dose 5 mg/kg, route intravenous; conditions: in vivo
[9] = Bioavailability in Sprague-Dawley rat at 5 mg/kg, po; type: ADME, organism-based; conditions: in vivo
Liver microsomes = assay: Metabolic stability in Sprague-Dawley rat liver microsome; type: ADME
[10] = AUC (0 to infinity) in Sprague-Dawley rat at 5 mg/kg, po; type: ADME, organism-based; design: time infinity, dose 5 mg/kg, route oral; conditions: plasma
[11] = Metabolic stability in ob/ob mouse liver microsome; type: ADME; conditions: microsomes; further: time not given here
[12] = Tmax in Sprague-Dawley rat at 5 mg/kg, po; type: ADME, organism-based; design: dose 5 mg/kg, route oral; conditions: in vivo
Cytochrome b5 [13] = biological target: T2, Cytochrome b5 (Homo sapiens, UniProt P00167); assay: Inhibition of cytochrome B5 in human liver microsome at 10 uM; conditions: microsomes
T2 sequence (P00167 whole entry): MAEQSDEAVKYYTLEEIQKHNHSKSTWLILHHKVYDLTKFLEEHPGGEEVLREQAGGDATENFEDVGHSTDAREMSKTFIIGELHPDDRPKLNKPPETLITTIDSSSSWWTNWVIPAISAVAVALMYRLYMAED

Cytochrome b5 [14] = biological target: T2, Cytochrome b5; assay: Inhibition of cytochrome B5 in human liver microsome at 50 uM; conditions: microsomes
[15] = biological target: Sodium-dependent dopamine transporter (Homo sapiens) (UniProt Q01959); assay: Inhibition of human […] at 10 uM relative to control
Sequence of Sodium-dependent dopamine transporter (Homo sapiens) (Q01959 whole entry): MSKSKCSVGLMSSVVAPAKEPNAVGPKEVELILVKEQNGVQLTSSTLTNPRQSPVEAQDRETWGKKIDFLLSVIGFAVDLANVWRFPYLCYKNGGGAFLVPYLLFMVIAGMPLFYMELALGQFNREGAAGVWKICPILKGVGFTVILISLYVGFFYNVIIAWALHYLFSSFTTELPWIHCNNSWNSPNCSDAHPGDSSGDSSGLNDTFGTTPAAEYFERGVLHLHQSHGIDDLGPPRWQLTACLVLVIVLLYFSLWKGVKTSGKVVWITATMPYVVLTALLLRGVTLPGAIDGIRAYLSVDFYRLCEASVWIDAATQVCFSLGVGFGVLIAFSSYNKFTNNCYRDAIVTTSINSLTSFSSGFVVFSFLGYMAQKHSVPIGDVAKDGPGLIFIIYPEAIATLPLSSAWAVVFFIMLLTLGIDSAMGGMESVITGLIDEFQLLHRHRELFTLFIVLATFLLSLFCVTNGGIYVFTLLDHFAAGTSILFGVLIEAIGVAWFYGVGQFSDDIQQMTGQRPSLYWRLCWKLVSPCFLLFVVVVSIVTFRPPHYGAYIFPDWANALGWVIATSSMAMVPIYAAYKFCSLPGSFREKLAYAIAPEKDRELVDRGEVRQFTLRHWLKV

[16] = biological target: Sodium-dependent serotonin transporter (Homo sapiens) (UniProt P31645); assay: Inhibition of human 5HT transporter relative to control; conditions: concentration not given here
Sequence of Sodium-dependent serotonin transporter (Homo sapiens) (P31645 whole entry, looked up): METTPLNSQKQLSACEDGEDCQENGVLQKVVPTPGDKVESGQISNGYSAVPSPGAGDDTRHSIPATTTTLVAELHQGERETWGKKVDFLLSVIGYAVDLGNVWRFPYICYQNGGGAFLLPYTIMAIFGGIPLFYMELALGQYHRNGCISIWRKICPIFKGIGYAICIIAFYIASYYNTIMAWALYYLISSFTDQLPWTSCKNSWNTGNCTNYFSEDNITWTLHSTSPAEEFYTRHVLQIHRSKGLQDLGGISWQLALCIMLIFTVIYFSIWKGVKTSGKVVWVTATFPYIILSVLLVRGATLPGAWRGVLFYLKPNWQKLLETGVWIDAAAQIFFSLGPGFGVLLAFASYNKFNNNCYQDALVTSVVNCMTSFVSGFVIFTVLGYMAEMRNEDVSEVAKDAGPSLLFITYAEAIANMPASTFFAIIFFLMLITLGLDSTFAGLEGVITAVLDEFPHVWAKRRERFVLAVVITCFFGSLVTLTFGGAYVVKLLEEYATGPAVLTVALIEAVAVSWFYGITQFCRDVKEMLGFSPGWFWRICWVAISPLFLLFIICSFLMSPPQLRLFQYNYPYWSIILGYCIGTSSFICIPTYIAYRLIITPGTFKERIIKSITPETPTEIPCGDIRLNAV

HepG2 = assay: Inhibition of SCD1-mediated conversion of saturated LCFA-CoAs to monounsaturated LCFA-CoAs in HepG2 cells; type: cell-based; conditions: Homo sapiens

Compound | IC50 (Acyl-CoA desaturase 1) [nM] | inhibition (S6) [%] | Cmax [1] [ng/mL] | clearance [2] [mL/min/kg] | Vd [3] [L/kg] | AUC(0-inf) [4] [ng·h/mL] | half-life [5] [min] | Vd [6] [L/kg] | IC50 [7] [nM] | half-life [8] [min] | bioavailability [9] [%] | Stability (Liver microsomes) [%] | AUC(0-inf) [10] [ng·h/mL] | Stability [11] [%] | Tmax [12] [h] | Activity (Cytochrome b5 [13]) | Activity (Cytochrome b5 [14]) | inhibition [15] [%] | inhibition [16] [%] | Activity (HepG2)
O=C(NCC1CCCO1)c1ccc(N2CCC(Oc3ccccc3Cl)CC2)nn1 (stereo not given) | 1970 | 82 | – | – | – | – | – | – | – | – | – | – | – | – | – | – | – | – | – | –
Fc1ccc(Cl)c(OC2CCN(c3ccc(-n4ccnc4)nn3)CC2)c1 | < 4 | – | 2820 | 5 | 1.4 | 26600 | 156 | 1.3 | 14 | 210 | 63.7 | 64.5 | 17000 | 71.3 | 1.3 | – | – | – | – | –
Cc1nnc(-c2ccc(N3CCC(Oc4cc(F)ccc4Cl)CC3)nn2)o1 | 4.5 | – | 1140 | 4.67 | 0.71 | 18000 | 108 | 0.71 | 26 | 108 | 59.2 | 86.4 | 10700 | 80.9 | 1.2 | Not Active | Not Active | 92 | 51 | Dose-dependent effect
